Measured values from US20170247458A1, “Safety for Treating Cancers with a Glycosylated Chimeric Antibody to EGFR” (Sorrento Therapeutics, Inc., priority 2016, published 2017).

What was measured:
[1] = tested on: EGFR positive, metastatic colorectal cancer; assay: Phase 2/3 study, radiologic response and survival
[2] = human, in vivo
[3] = Phase 2/3 study, safety evaluation and adverse events; conditions: Table 7

## CCc1c2c(nc3ccc(OC(=O)N4CCC(N5CCCCC5)CC4)cc13)-c1cc3c(c(=O)n1C2)COC(=O)[C@]3(O)CC [Irinotecan monotherapy, irinotecan]
[1]; Ph2/3 trial
  Complete response, number of patients: 1
  Complete response, rate in parentheses: 0.6
  Partial response, number of patients: 20
  Partial response, rate in parentheses: 12.2
  Progressive disease, number of patients: 44
  Progressive disease, rate in parentheses: 26.8
  Stable disease, number of patients: 86
  Stable disease, rate in parentheses: 52.4
  Time to disease progression: 4.1 months
  Unable to evaluate, number of patients: 13
  Unable to evaluate, rate in parentheses: 7.9
[1]; sum of CR and PR
  Overall response rate, number of patients: 21
[1]; sum of CR and PR, interval in brackets not copied
  Overall response rate, rate in parentheses: 12.8
[1]; sum of CR, PR and SD
  Disease control rate, number of patients: 107
[1]; sum of CR, PR and SD, interval in brackets not copied
  Disease control rate, rate in parentheses: 65.2
[2]
  At least one ADR, number of patients: 126
  At least one ADR, share of patients: 74.1%
  At least one AE which lead to stop drug treatment, number of patients: 27
  At least one AE which lead to stop drug treatment, share of patients: 15.9%
  At least one AE, number of patients: 148
  At least one AE, share of patients: 87.1%
  At least one Level □ or above ADR, number of patients: 10
  At least one Level □ or above ADR, share of patients: 5.9%
  At least one Level □ or above AE, number of patients: 12
  At least one Level □ or above AE, share of patients: 7.1%
  At least one Level □ or above important AE, number of patients: 11
  At least one Level □ or above important AE, share of patients: 6.5%
  At least one SAE, number of patients: 8
  At least one SAE, share of patients: 4.7%
  At least one important AE, number of patients: 120
  At least one important AE, share of patients: 70.6%
  At least one test drug-related SAE, number of patients: 1
  At least one test drug-related SAE, share of patients: 0.6%
  Grade 3-4 Abdominal pain, number: 0
  Grade 3-4 Acne-like rash, number: 0
  Grade 3-4 Anemia, number: 3
  Grade 3-4 Anemia, value in parentheses: (1.8)
  Grade 3-4 Asthenia, number: 6
  Grade 3-4 Asthenia, value in parentheses: (3.7)
  Grade 3-4 Diarrhea, number: 12
  Grade 3-4 Diarrhea, value in parentheses: (7.3)
  Grade 3-4 Fever, number: 1
  Grade 3-4 Fever, value in parentheses: (0.9)
  Grade 3-4 Nausea and vomiting, number: 16
  Grade 3-4 Nausea and vomiting, value in parentheses: (9.8)
  Grade 3-4 Neutropenia, number: 14
  Grade 3-4 Neutropenia, value in parentheses: (8.5)
  Grade 3-4 Stomatitis, number: 0
  Grade 3-4 Thrombocytopenia, number: 0
  Grade 3-4 adverse events, Any, number: 57
[3]
  Test drug-related death AE, number of patients: 0
